# Assay results as given in patent US20250320245A1, “Nucleoside Analogues for the Treatment of Parasitic Infections” (Universiteit Antwerpen, priority 2021, published 2025).
# Read-outs that look alike come from different tables or passages of the source.
# Legend:
# [1] = tested on: isometamidium (ISM)-resistant T. congolense strain (MSORO M7H); assay: Ex vivo drug susceptibility assay, T. congolense ISM-resistant; assay type: cell-based; conditions: Trypanosoma congolense; Table 2; two independent repeat experiments; read-out: IC50 T. congolense ISM-R
# Description: (§1) T. congolense (IL3000), the isometamidium (ISM)-resistant T. congolense strain (MSORO M7H), T. evansi type A (RoTat 1.2), T. evansi type B (KETRI 2479) and T. equiperdum (BoTat 1.1) used for in vitro, ex vivo and in vivo experiments were kindly provided by the Institute of Tropical Medicine (ITM), and T. vivax (ILRAD700) and T. congolense (TC13) used for ex vivo and in vivo experiments, were kindly provided by the University of Brussel (VUB).
# (§2) Ex Vivo Drug Susceptibility Assays for T. vivax, T. congolense ISM-Resistant, and T. evansi Type B
# (§3) For Trypanosoma species/strains that were not adapted to culture conditions, donor mice were infected intraperitoneally with 10^4 parasites. Around day 5-6 post infection, blood was collected via cardiac puncture and parasites were isolated using mini-anion exchange centrifugation technique (mAECT). 4-fold dilutions of the test compounds were prepared with the highest concentration of 64 μM, and parasites were seeded at 1×10^5 parasite/well. Following 24 h of drug exposure at 37° C. and 5% CO2, resazurin was added to the wells and plates were incubated (37° C./5% CO2) for another 24 h. Cell viability was determined by fluorescence reading (Tecan®, GENios), and IC50 values were calculated by non-linear regression (dose-response curve with variable slope) using Prism 8.0 (GraphPad Software Inc., San Diego, CA, USA).
# [2] = tested on: T. evansi type A (RoTat 1.2); assay: In vitro drug susceptibility assay, T. evansi type A; assay type: cell-based; conditions: Table 2; two independent repeat experiments; read-out: IC50 T. evansi (type A)
# Protocol: (§4) Drug susceptibility assays with T. brucei (Squib 427), T. evansi type A (RoTat 1.2) and T. equiperdum (BoTat 1.1) were performed under similar conditions. Parasites were cultured in HMI-9 culture medium supplemented with 10% iFBS. To determine in vitro susceptibility of the abovementioned Trypanosoma species, 10 concentrations of a 4-fold dilution series (with a highest in-test concentration of 64 μM) was prepared for each compound, and parasites were seeded at 1.5×10^4 parasite/well. After 72 h of drug exposure at 37° C. with 5% CO2, resazurin was added to the wells (final concentration of 10 μg mL^−1), followed by another incubation for 24 h. Cell viability was determined by fluorescence reading (Tecan®, GENios) and 50% inhibitory concentration (IC50) was calculated for each compound.
# [3] = tested on: T. B. brucei AnTAR1.1 PPYRE9; assay: Bioluminescent T. brucei late curative mouse model; assay type: in vivo, female Swiss mice; conditions: single-dose i.p. 50 mg kg−1
# Protocol: Female Swiss mice (BW˜20-24 g; Janvier Labs, France) were randomly allocated to group of 3 animals and were intraperitoneally infected with 2×10^3 T. B. brucei AnTAR1.1 PPYRE9 derived from a heavily infected donor mouse. FH15967 was formulated in 10% (v/v) polyethylene glycol 400 (PEG400) in water at 2 mg mL^−1 and was administrated to separate groups as single dose s.i.d. i.p. at 50 mg kg-1 (n=3), and b.i.d i.p. at 50 mg kg^−1 (n=3). The reference drug diminazene aceturate was formulated in PBS at 2.5 mg mL^−1 and administrated s.i.d i.p. as a single dose at 10 mg kg^−1. Treatment was initiated at 3 dpi when parasitemia reached 10^6 parasites mL^−1, and parasitemia was microscopically determined via Neubaur improved haemocytometer on a daily basis until 7 dpi. Bioluminescent images were obtained at 3, 5 and 7 dpi to determine parasite burdens in the body. Accordingly, D-luciferin was injected i.p. at 15 mg kg^−1, animals were anaesthetised using isoflurane, and luminescent signals were acquired from both the dorsal and ventral sides of the animals. […] BLI images that obtained from IVIS Spectrum In vivo Imaging System (Perkin Elmer) were quantified with Living Image V4.3.1 SoftWoRx Suite 2.0 for microscopy, then processing using the Fiji software.
# [4] = tested on: T. vivax (ILRAD700); assay: Ex vivo drug susceptibility assay, T. vivax; assay type: cell-based; conditions: Trypanosoma vivax
# Description: as §1, §2, §3
# [5] = tested on: T. brucei (Squib 427); assay: In vitro drug susceptibility assay, T. brucei; assay type: cell-based; conditions: Trypanosoma brucei
# Protocol: as §4
# [6] = tested on: T. evansi type B (KETRI 2479); assay: Ex vivo drug susceptibility assay, T. evansi type B; assay type: cell-based; conditions: Table 2; two independent repeat experiments
# Description: as §1, §2, §3
# [7] = tested on: T. congolense (IL3000); assay: In vitro drug susceptibility assay, T. congolense; assay type: cell-based; conditions: Trypanosoma congolense; Table 2; two independent repeat experiments
# Protocol: Drug susceptibility assays for T. congolense (IL3000) were performed with parasites cultured in HMI-9 medium supplemented with 15% horse serum. Parasites were seeded at a concentration of 1.5×10^4 parasite/well and exposed to a 4-fold compound dilution series starting at a highest in-test concentration of 64 μM. Plates were incubated for 72 h at 34° C. and 5% CO2, followed by the addition of resazurin (Sigma, Aldrich) and a further incubation period of 24 h. Cell viability was quantified by fluorescence reading (Tecan®, GENios), and IC50 values were calculated by non-linear regression (dose-response curve with variable slope) using Prism 8.0 (GraphPad Software Inc., San Diego, CA, USA).
# [8] = In vitro metabolic stability, mouse liver S9; assay type: in vitro ADME
# Protocol: The metabolic stability of selected compounds was determined in the presence of mice, horse, and bovine liver microsome fractions (S9) through phase-I (CYP450 and NADPH dependent enzymes) and Phase-II (UGT enzymes) metabolisms. Samples were collected after 0, 15, 30, and 60 minutes of incubation and the corresponding loss of parent compound was determined via liquid chromatography (UPLC) (Waters Aquity™) coupled with tandem quadrupole mass spectrometry (MS^2) (Waters Xevo™), equipped with an electrospray ionization (ESI) interface and operated in multiple reaction monitoring (MRM) mode.
# [9] = Cytotoxicity assay on MRC-5 fibroblasts; assay type: cell-based; conditions: human
# Protocol: MRC-5SV2 (Sigma-Aldrich/ECACC, catalogue number 84100401) human embryonic lung fibroblasts were used to perform cytotoxicity assays. The cells were cultured in minimum essential medium (MEM, Life Technologies) with Earle's salt medium, supplemented with L-glutamine, NaHCO3 and 5% inactivated fetal bovine serum (iFBS). Cells were seeded at 1.5×10^4 cells/well and 4-fold compound dilutions were immediately added with a highest in-test concentration of 64 μM. After a 3-day incubation, resazurin (Sigma-Aldrich) was added to each well (final concentration of 10 μg mL^−1), and cell viability was assessed by fluorescent reading (Tecan®, GENios) following 4 h of incubation with resazurin (37° C./5% CO2). The results were expressed as percentage reduction in cell growth/viability compared to control wells and the 50% cytotoxic concentration (CC50) was calculated for each of the compounds.
# [10] = tested on: T. equiperdum (BoTat 1.1); assay: In vitro drug susceptibility assay, T. equiperdum; assay type: cell-based; conditions: Trypanosoma equiperdum; Table 2; two independent repeat experiments
# Protocol: as §4
smiles,measurement,setting,value
"OC[C@H]1O[C@@H](n2ccc3c(Sc4ccccc4)ncnc32)[C@H](O)[C@@H]1O [FH15967, 4-S-phenyl-N7-(β-D-ribofuranosyl)pyrrolo[2,3-d]pyrimidine]",IC50,[1],180 ± 9 nM
same,IC50,[2],33 ± 6 nM
same,parasitemia decline by bioluminescent imaging and signal quantification,[3]; even faster than the diminazene aceturate reference group,rapid parasitemia decline
same,blood parasitemia,[3]; until day 7 post infection,negative blood parasitemia
same,IC50,"[4]; Table 1, mean and SEM of two independent experiments, read-out: T. vivax in vitro activity (IC50)",44 ± 5 nM
same,IC50,"[4]; Table 2, two independent repeat experiments, read-out: IC50 T. vivax",44 ± 5 nM
same,IC50,"[5]; Table 1, mean and SEM of two independent experiments, read-out: T. brucei in vitro activity (IC50)",31 ± 8 nM
same,IC50,"[5]; Table 2, two independent repeat experiments, read-out: IC50 T. brucei",31 ± 8 nM
same,IC50,[6],18 ± 6 nM
same,IC50,[7],100 ± 20 nM
same,metabolic stability in mouse liver microsomes,"[8]; mouse liver S9, phase-I, without 1-ABT",phase-I metabolic degradation
same,effect of 1-aminobenzotriazole (1-ABT) on phase-I metabolic decay,[8]; mouse microsome pre-incubated with 1-ABT,adequately block phase-I metabolic decay
same,CC50 at 3 day,"[9]; MRC-5SV2 embryonic lung fibroblasts, Table 1, mean and SEM of two independent experiments, highest concentration 64 μM, read-out: MRC-5 off-target cytotoxicity (CC50)",> 64000 nM
same,IC50 at 3 day,"[9]; MRC-5SV2 human embryonic lung fibroblasts, Table 2, two independent repeat experiments",> 64000 nM
same,IC50,[10],26 ± 5 nM
